Experimental data reported in the kinase profiling compilation of Christmann-Franck et al. (2016).

Columns and labels:
Experiment in all cases: KINOMEscan competition binding
Conditions in all cases: compound 1.0 µM
CDK19 (human) = CDK19 (human) (UniProt Q9BWU1)
PRKD3 (human) = PRKD3 (human) (UniProt O94806)
HIPK4 (human) = HIPK4 (human) (UniProt Q8NE63)
TNIK (human) = TNIK (human) (UniProt Q9UKE5)
YES1 (human) = YES1 (human) (UniProt P07947)
FGFR4 (human) = FGFR4 (human) (UniProt P22455)
NEK2 (human) = NEK2 (human) (UniProt P51955)
[1] = test system: EGFR (human), P00533 [G719S]
[2] = test system: EGFR (human), P00533 [A750P; 747-749 del]
TAOK1 (human) = TAOK1 (human) (UniProt Q7L7X3)
[3] = target: JAK2 JH1 catalytic (human) (UniProt O60674)
SIK2 (human) = SIK2 (human) (UniProt Q9H0K1)
EIF2AK2 (human) = EIF2AK2 (human) (UniProt P19525)
Chain of EIF2AK2 (human) (P19525 whole entry, looked up): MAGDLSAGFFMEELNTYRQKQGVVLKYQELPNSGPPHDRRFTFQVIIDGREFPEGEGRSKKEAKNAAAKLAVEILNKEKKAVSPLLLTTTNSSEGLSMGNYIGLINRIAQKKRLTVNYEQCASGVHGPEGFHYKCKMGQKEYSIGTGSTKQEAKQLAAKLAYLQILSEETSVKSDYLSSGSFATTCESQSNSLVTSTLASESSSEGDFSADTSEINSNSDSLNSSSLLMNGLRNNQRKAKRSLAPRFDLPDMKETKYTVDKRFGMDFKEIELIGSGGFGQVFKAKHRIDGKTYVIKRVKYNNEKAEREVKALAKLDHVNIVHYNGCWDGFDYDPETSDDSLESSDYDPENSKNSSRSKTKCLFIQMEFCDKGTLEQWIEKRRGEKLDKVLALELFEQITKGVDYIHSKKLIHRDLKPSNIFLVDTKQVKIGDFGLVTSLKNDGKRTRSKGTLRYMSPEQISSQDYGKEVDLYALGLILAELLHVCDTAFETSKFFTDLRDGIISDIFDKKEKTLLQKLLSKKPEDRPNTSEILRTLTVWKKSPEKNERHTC

ACVR1 (human) = ACVR1 (human) (UniProt Q04771)
PAK1 (human) = PAK1 (human) (UniProt Q13153)
TXK (human) = TXK (human) (UniProt P42681)
PRPF4B (human) = PRPF4B (human) (UniProt Q13523)
BLK (human) = BLK (human) (UniProt P51451)
[4] = test system: PIK3CA (human), P42336 [E545A]
DMPK (human) = DMPK (human) (UniProt Q09013)
PTK2B (human) = PTK2B (human) (UniProt Q14289)
TNK2 (human) = TNK2 (human) (UniProt Q07912)
DCLK1 (human) = DCLK1 (human) (UniProt O15075)
MAP2K5 (human) = MAP2K5 (human) (UniProt Q13163)
RIOK1 (human) = RIOK1 (human) (UniProt Q9BRS2)
Chain of RIOK1 (human) (Q9BRS2 whole entry, looked up): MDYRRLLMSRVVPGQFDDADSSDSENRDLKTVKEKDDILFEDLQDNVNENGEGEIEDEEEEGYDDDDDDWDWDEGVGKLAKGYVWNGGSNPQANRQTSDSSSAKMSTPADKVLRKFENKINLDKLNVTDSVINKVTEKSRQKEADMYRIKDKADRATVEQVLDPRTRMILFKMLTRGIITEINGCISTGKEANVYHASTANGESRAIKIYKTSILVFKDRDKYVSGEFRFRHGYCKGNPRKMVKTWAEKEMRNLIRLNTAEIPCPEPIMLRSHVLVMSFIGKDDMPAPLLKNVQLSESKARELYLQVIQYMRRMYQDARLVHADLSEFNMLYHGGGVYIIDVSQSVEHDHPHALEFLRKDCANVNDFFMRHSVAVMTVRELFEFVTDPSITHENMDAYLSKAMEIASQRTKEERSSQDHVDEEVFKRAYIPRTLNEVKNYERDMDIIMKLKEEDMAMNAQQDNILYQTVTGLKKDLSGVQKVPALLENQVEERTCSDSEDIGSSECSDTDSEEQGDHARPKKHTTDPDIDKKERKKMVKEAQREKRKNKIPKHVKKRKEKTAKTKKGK

CAMK2D (human) = CAMK2D (human) (UniProt Q13557)
Chain of CAMK2D (human) (Q13557 whole entry, looked up): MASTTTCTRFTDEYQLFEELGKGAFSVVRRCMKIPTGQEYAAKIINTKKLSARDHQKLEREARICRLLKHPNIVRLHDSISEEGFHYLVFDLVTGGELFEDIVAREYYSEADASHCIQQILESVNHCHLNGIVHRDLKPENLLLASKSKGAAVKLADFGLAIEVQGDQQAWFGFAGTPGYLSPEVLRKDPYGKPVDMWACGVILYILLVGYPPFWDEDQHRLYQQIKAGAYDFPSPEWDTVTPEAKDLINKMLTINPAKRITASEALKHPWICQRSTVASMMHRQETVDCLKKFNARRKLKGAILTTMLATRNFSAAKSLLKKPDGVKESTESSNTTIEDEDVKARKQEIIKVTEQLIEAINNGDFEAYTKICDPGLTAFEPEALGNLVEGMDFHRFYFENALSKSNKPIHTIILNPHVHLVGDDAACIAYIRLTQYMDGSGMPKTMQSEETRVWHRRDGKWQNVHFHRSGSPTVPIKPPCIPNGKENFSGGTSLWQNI

MAP4K5 (human) = MAP4K5 (human) (UniProt Q9Y4K4)
AURKA (human) = AURKA (human) (UniProt O14965)
[5] = test system: FLT3 (human), P36888 [R834Q]
MAPK4 (human) = MAPK4 (human) (UniProt P31152)
PLK3 (human) = PLK3 (human) (UniProt Q9H4B4)
TRPM6 (human) = TRPM6 (human) (UniProt Q9BX84)
[6] = test system: KIT (human), P10721 [V559D/V654A]
MAP2K6 (human) = MAP2K6 (human) (UniProt P52564)
FGFR1 (human) = FGFR1 (human) (UniProt P11362)
Chain of FGFR1 (human) (P11362 whole entry, looked up): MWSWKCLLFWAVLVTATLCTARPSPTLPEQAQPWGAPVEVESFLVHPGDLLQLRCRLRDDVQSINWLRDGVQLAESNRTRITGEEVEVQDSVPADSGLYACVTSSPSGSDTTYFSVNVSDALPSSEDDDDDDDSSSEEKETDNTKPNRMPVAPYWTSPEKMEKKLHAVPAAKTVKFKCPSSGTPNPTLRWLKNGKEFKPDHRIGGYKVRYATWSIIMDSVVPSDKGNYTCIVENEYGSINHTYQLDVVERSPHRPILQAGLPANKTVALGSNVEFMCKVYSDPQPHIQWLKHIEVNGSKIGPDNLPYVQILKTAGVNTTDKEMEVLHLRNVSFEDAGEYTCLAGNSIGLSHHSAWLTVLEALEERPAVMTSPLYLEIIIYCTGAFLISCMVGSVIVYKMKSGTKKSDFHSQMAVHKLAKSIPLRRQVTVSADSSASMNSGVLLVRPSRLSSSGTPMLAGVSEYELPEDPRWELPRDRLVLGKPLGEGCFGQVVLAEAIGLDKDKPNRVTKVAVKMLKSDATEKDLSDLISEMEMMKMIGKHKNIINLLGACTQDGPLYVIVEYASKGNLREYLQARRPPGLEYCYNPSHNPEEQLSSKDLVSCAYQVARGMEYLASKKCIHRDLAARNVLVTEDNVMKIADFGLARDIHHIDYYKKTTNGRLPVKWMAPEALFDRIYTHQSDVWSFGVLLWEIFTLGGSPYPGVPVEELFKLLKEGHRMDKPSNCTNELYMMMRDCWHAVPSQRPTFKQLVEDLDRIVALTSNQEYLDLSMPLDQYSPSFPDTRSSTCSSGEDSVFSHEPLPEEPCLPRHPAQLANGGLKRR

MAP3K15 (human) = MAP3K15 (human) (UniProt Q6ZN16)
MYO3A (human) = MYO3A (human) (UniProt Q8NEV4)
Chain of MYO3A (human) (Q8NEV4 whole entry, looked up): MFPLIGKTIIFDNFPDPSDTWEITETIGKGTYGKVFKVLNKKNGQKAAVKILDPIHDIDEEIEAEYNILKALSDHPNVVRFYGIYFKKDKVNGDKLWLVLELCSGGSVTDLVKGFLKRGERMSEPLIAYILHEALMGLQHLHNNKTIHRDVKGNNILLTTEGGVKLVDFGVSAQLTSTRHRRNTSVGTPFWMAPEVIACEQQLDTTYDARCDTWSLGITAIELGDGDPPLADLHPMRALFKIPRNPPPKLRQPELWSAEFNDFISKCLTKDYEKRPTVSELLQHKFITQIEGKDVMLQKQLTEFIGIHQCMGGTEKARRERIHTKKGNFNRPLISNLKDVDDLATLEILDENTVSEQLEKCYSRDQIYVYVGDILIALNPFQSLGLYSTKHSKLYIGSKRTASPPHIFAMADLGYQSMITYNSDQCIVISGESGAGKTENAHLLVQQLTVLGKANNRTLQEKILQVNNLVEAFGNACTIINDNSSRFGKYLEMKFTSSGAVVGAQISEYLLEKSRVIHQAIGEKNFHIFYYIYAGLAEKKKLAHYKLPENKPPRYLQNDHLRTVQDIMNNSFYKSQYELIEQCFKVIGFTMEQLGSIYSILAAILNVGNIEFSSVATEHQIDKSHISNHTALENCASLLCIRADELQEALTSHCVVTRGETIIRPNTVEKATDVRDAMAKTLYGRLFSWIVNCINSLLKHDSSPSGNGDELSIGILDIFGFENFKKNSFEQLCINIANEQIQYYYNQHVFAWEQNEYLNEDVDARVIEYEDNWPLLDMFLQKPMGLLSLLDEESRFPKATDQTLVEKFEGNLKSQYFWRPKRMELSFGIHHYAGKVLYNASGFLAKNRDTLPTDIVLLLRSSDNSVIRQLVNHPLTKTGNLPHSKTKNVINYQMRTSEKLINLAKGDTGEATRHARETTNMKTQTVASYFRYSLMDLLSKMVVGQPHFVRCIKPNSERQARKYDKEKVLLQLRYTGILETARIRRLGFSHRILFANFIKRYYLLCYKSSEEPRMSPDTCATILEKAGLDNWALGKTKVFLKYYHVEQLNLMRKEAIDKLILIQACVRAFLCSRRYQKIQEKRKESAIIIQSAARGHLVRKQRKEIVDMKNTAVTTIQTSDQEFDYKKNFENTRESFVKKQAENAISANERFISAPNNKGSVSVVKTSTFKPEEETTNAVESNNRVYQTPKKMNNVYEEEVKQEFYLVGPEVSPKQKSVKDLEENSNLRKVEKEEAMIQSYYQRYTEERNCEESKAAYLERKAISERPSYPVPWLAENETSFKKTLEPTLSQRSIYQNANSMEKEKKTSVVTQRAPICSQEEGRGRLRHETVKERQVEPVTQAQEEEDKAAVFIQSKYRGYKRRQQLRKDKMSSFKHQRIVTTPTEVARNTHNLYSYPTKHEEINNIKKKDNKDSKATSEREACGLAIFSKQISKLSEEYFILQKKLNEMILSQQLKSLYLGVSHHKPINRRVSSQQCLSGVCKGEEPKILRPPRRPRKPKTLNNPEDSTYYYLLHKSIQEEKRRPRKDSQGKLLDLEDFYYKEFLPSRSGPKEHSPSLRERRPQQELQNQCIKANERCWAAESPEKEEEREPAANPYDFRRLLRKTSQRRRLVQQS

IKBKB (human) = IKBKB (human) (UniProt O14920)
Chain of IKBKB (human) (O14920 whole entry, looked up): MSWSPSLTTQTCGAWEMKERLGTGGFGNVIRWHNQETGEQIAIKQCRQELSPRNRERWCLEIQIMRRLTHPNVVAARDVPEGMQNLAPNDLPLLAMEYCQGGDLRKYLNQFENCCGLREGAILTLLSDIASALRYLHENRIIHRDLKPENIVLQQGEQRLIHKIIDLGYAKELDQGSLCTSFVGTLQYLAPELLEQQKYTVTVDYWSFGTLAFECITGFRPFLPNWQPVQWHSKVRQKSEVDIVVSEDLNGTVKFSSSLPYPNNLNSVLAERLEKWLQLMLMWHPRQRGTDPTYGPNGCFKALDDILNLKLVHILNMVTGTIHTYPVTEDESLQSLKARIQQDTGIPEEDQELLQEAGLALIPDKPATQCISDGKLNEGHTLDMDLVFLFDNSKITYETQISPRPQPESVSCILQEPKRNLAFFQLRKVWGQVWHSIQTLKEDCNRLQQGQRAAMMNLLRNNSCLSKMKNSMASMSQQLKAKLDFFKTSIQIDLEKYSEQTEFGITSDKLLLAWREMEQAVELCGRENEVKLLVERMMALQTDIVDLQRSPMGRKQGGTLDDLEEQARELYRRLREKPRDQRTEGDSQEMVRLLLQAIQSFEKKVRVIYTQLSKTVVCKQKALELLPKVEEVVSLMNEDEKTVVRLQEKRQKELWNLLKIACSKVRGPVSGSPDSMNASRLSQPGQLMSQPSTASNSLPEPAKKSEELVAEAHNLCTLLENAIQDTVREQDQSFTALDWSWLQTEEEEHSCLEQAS

MAK (human) = MAK (human) (UniProt P20794)
EPHB1 (human) = EPHB1 (human) (UniProt P54762)
MAP4K4 (human) = MAP4K4 (human) (UniProt O95819)
[7] = test system: KIT (human), P10721 [A829P]

## CN(C)C/C=C/C(=O)Nc1cccc(C(=O)Nc2ccc(Nc3nccc(-c4cccnc4)n3)cc2)c1
CDK19 (human)
  kinase still bound, per cent of control: 58%
PRKD3 (human)
  kinase still bound, per cent of control: 100%
HIPK4 (human)
  kinase still bound, per cent of control: 18%
TNIK (human)
  kinase still bound, per cent of control: 40%
YES1 (human)
  kinase still bound, per cent of control: 98%
FGFR4 (human)
  kinase still bound, per cent of control: 100%
NEK2 (human)
  kinase still bound, per cent of control: 86%
[1]
  kinase still bound, per cent of control: 78%
[2]
  kinase still bound, per cent of control: 87%
TAOK1 (human)
  kinase still bound, per cent of control: 13%
[3]
  kinase still bound, per cent of control: 50%
SIK2 (human)
  kinase still bound, per cent of control: 51%
EIF2AK2 (human)
  kinase still bound, per cent of control: 53%
ACVR1 (human)
  kinase still bound, per cent of control: 70%
PAK1 (human)
  kinase still bound, per cent of control: 69%
TXK (human)
  kinase still bound, per cent of control: 83%
PRPF4B (human)
  kinase still bound, per cent of control: 93%
BLK (human)
  kinase still bound, per cent of control: 100%
[4]
  kinase still bound, per cent of control: 95%
DMPK (human)
  kinase still bound, per cent of control: 90%
PTK2B (human)
  kinase still bound, per cent of control: 100%
TNK2 (human)
  kinase still bound, per cent of control: 100%
DCLK1 (human)
  kinase still bound, per cent of control: 96%
MAP2K5 (human)
  kinase still bound, per cent of control: 6.8%
RIOK1 (human)
  kinase still bound, per cent of control: 15%
CAMK2D (human)
  kinase still bound, per cent of control: 100%
MAP4K5 (human)
  kinase still bound, per cent of control: 52%
AURKA (human)
  kinase still bound, per cent of control: 67%
[5]
  kinase still bound, per cent of control: 74%
MAPK4 (human)
  kinase still bound, per cent of control: 11%
PLK3 (human)
  kinase still bound, per cent of control: 75%
TRPM6 (human)
  kinase still bound, per cent of control: 100%
[6]
  kinase still bound, per cent of control: 67%
MAP2K6 (human)
  kinase still bound, per cent of control: 53%
FGFR1 (human)
  kinase still bound, per cent of control: 90%
MAP3K15 (human)
  kinase still bound, per cent of control: 88%
MYO3A (human)
  kinase still bound, per cent of control: 81%
IKBKB (human)
  kinase still bound, per cent of control: 48%
MAK (human)
  kinase still bound, per cent of control: 5.6%
EPHB1 (human)
  kinase still bound, per cent of control: 92%
MAP4K4 (human)
  kinase still bound, per cent of control: 40%
[7]
  kinase still bound, per cent of control: 78%
